Reference: patent US20200179296A1, “Accelerated Clearance of Biologic Therapeutics Using Click-Antidotes” (The Regents of the University of Colorado, a body corporate, priority 2018, published 2020)

Key:
[1] = Elimination profile and organ distribution of NIR-labeled antidotes after i.v. injection; format: in vivo; settings: female BALB/c mice
Source text: FIGS. 1A-1F show the antidotes used in the study. […] The nanocarriers were modified with click groups (DSPE-PEG3400 with MTZ, BSA with TCO, CLIO NW and CLIO with TCO) as described in Methods. […] Crosslinked dextran shell is not visible. Size bar=50 nm. FIGS. 1C-1F show the elimination profile of the antidotes and organ distribution (NIR images). Labels are as follows: k-kidney, s-spleen, Iv-liver, i-intestine, lu-lung, h-heart). DSPE-PEG-MTZ, BSA-TCO and CLIO NW-TCO are long circulating particles, whereas CLIO-TCO are short circulating particles. […] N=3 mice per group.
Female BALB/c mice 6-8 weeks old were used for the experiments and bred in house. In order to determine circulation half-life of NIR-labeled antibodies and antidotes, 2 μL blood were collected at different time points through retroorbital vein or mandibular vein and were applied in duplicates on a 0.22 μm nitrocellulose membrane and scanned at 800 nm using Li-COR Odyssey. The spot integrated density of a 16-bit TIFF image was measured with ImageJ and plotted as a function of time. The fluorescence of dots at initial time point was used as 100%. […] Mean fluorescence was determined from 16-bit images using ImageJ software by subtracting the background, drawing a ROI around the organs, and using a measure function to determine mean gray value. […]

[2] = Size and zeta potential of the antidotes (Zetasizer Nano ZS), particle concentration; format: physicochemical
Source text: Synthesis of CLIO and CLIO NWs: CLIO NWs were synthesized from native 20 kDa dextran (Sigma) whereas CLIO were synthesized from reduced T-10 (10 k Da) dextran (Pharmacosmos). Dextran, Fe (III) chloride and Fe (II) chloride were mixed in DDW and titrated with ammonia using a modified Molday precipitation method. The ratio between dextran and iron salts determined the final size of the nanoparticles. Excess dextran was removed with ultrafiltration and the particles were crosslinked with epichlorohydrin as described. Excess epichlorohydrin was removed with ultrafiltration and particles were aminated by addition of ammonium hydroxide (CLIO NWs) or diaminohexane (CLIO) overnight at 4° C. […] Size and zeta potential were determined using Zetasizer Nano ZS (Malvern Instruments Ltd, Malvern, UK). […] The amino group content was determined by reaction with Cy7-NHS. […] The amount of the reacted dye was determined by the difference in the supernatant fluorescence between the reaction tube and control tube (no particles). The number of amines per nanoparticle was determined to be ˜100,000 per CLIO and CLIO NW.
BSA-TCO size and zeta potential are similar to those of native BSA values reported in literature. Particle concentration of BSA was determined based on Mw of 67 kDa; CLIO and CLIONW concentration was determined as described before. […]

IRDye 800CW-labeled IgG [3] = assay: In vivo depletion of blood IgG by click-modified antidotes; design: species or system BALB/c mice
Experimental: Blood IgG levels were measured at different time points, up to 72 h post injection. […] Black line is “IgG only”, green line is “IgG+antidote”. Time of IgG injection is “0” on the X-axis. The antidotes were injected at different times after IgG injection as marked by red arrows. First blood draw was at 1 h post-IgG injection (100%). The IgG only (control) group was included in every experiment. […] Two tailed t-test, n=3 mice per group.
Female BALB/c mice 6-8 weeks old were used for the experiments and bred in house. In order to determine circulation half-life of NIR-labeled antibodies and antidotes, 2 μL blood were collected at different time points through retroorbital vein or mandibular vein and were applied in duplicates on a 0.22 μm nitrocellulose membrane and scanned at 800 nm using Li-COR Odyssey. The spot integrated density of a 16-bit TIFF image was measured with ImageJ and plotted as a function of time. The fluorescence of dots at initial time point was used as 100%. For organ distribution, mice were euthanized at 48-72 h post injection and the organs were placed in wells on a 12-well plate. Organs were scanned with Li-COR Odyssey at 800 nm. Mean fluorescence was determined from 16-bit images using ImageJ software by subtracting the background, drawing a ROI around the organs, and using a measure function to determine mean gray value.
In order to test the depletion efficiency of the antidotes, female BALB/c mice were injected with 25 μg IRDye 800CW-labeled IgG followed by PBS (control) or the antidote, and the levels of IgG in blood (both antidote-bound and free) were measured at different times post-IgG injection (FIG. 2A). […] To test the ability of DSPE-PEG-MTZ to decrease total blood levels of IgG (both antidote bound and free), mice were injected with IRDye 800CW-IgG-TCO followed 1.5 h later with the lipid (1 mg, 1660-fold molar excess of MTZ groups). […] To test the depletion efficiency of BSA-TCO, we injected mice with 25 μg of IgG-MTZ followed by BSA-TCO at 2 h and 3 h post-IgG injection (500 μg each; ˜400 fold excess of TCO; 92-fold excess of surface-binding capacity). […] In view of the large excess of the injected lipid and BSA over IgG, it is unlikely that insufficient binding capacity is responsible for the observed difference in the depletion efficiency of these antidotes. To further investigate which factors contribute to the depletion efficiency, CLIO-TCO and CLIO NW-TCO were compared that have similar sizes but different blood half-lives (FIGS. 2E, 2F). […] It was also confirmed that CLIO-TCO specifically binds to IgG via click chemistry (FIG. 11B), which confirms that the observed decrease in IgG blood fluorescence was due to depletion.

IRDye 800CW-labeled IgG [4] = assay: Organ distribution of IgG fluorescence in control and antidote-injected groups; format: in vivo, BALB/c mice; settings: 48-72 h after antidote injection
Source text: Graphs show mean gray value of fluorescence scans, images show colored images in 800 nm channel. Organs were scanned in […]; each organ's image corresponds to the bar graph below; representative images are shown. The signal represents both circulating IgG and organ-deposited IgG. Brightness and contrast were adjusted to the same extent in control and treated groups of the same experiment. Due to scanner settings, antibody batch and time when the experiment was terminated, the grey values show differences between experiments. 2-way ANOVA test with multiple comparisons, n=3 mice per group. Means and SD of experimental replicates are shown
Female BALB/c mice 6-8 weeks old were used for the experiments and bred in house. […] The spot integrated density of a 16-bit TIFF image was measured with ImageJ and plotted as a function of time. The fluorescence of dots at initial time point was used as 100%. […] Mean fluorescence was determined from 16-bit images using ImageJ software by subtracting the background, drawing a ROI around the organs, and using a measure function to determine mean gray value.
To study the depletion in the peripheral organs, the main organs were scanned 48-72 h after the antidote injection with Li-COR Odyssey NIR scanner. The mean fluorescence reflects both the deposited IgG and the circulating IgG (either free or antidote-bound). […]

For “BSA-TCO: bovine serum albumin conjugated with TCO-PEG4-NHS ester; macromolecule-based click antidote”, the “Organ accumulation of the antidote” value ([1]; NIR organ images) was “significant accumulation in the lungs”, the “Elimination half-life (slow phase)” value ([1]; i.v., blood) was 4 h and the Particles per mg ([2]; BSA based on Mw of 67 kDa) was 9 × 10^12 per mg. For the same substance, the Diameter ([2]; hydrodynamic diameter, intensity-weighted distribution) was 8 nm, the “Decrease in blood level of IgG at 3 h post-IgG injection vs control” value (IRDye 800CW-labeled IgG [3]; 25 μg IgG-MTZ, BSA-TCO 500 μg at 2 h and 3 h, CLIO-TCO 290 μg at 1 h) was 40% and the “Decrease in blood level of IgG at 24 h post IgG injection vs control” value (IRDye 800CW-labeled IgG [3]; 25 μg IgG, DSPE-PEG-MTZ 1 mg, BSA-TCO 2 x 500 μg, CLIO-TCO 290 μg) was 53%. For the same substance, the “Decrease in AUC24 h of blood IgG vs control, 3 injections of antidote” value (IRDye 800CW-labeled IgG [3]; BSA-TCO 500 μg at 1.5, 3, 23 h, CLIO-TCO 150 μg at 2, 3, 4 h post-IgG) was 38%, the “Decrease in AUC24 h of blood IgG vs control” value (IRDye 800CW-labeled IgG [3]; DSPE-PEG-MTZ 1 injection 1 mg, BSA-TCO 2 injections 500 μg each, CLIO-TCO 1 injection 290 μg) was 41% and the “Effect on IgG fluorescence in the liver” value (IRDye 800CW-labeled IgG [4]) was “increased the liver fluorescence”. For the same substance, the “Effect on IgG fluorescence in the organs” value (IRDye 800CW-labeled IgG [4]; Li-COR 800 nm) was “did not decrease the level of fluorescence in other organs”.
